In patent publication US9630949B2, “Oxoazetidine derivatives, process for the preparation thereof and use thereof in human medicine and in cosmetics” (GALDERMA RESEARCH & DEVELOPMENT, priority 2008, dated 2017):

Columns and labels:
hMC4R = hMC4R (Homo sapiens (Human), UniProt P32245); assay: Transactivation test: melanocortin receptors (pCRE-Luc luciferase reporter), hMC4R; format: cell-based; settings: HEK293 transfected with pCRE-Luc and hMC4R; products tested alone (agonist), 6 h incubation; % activity vs NDP-MSH 10 nM; IA: inactive
Method: (§1) Transactivation Test: Melanocortin Receptors
(§2) HEK293 lines are transfected with the pCRE-Luc and hMC1R, hMC3R, hMC4R or hMC5R vectors. The cells are cultured at 37° C., 5% CO2, in DMEM medium supplemented with 10% of foetal calf serum.
(§3) In the presence of an activator (agonist), the melanocortin receptor will activate the cAMP pathway which, via the CRE-Luc vector, will result in the synthesis of luciferase. After the addition of a lysis buffer containing a luminescent substrate for luciferase, it will be possible to measure the luminescence proportional to the degree of activation or of inhibition of the receptor.
(§4) The products are solubilized at 10 mM in DMSO. They are tested in the form of dose-response at a final DMSO concentration of 0.1%. The range comprising 10 points and one zero begins at 10 μM with 4-fold dilutions. For testing agonists, the products are tested alone. For determining the behaviour of antagonists, the products of interest are tested in the presence of 1 nM NDP-MSH (reference agonist). The cells are seeded at a rate of 5000 cells per well (384 well plate) in serum-free DMEM medium, and incubated overnight at 37° C., 5% CO2.
(§5) The products and the reference ligand (NDP-MSH) are added the following day, and the plates are again incubated for 6 h at 37° C., 5% CO2. After the addition of lysis buffer containing luciferin, the plates are read on a Top-Count instrument. The results are standardized as % activity using the 100% (cells+NDP-MSH at 10 nM) and 0% (cells alone) controls. An EC50 is calculated for each product using the XLFit software. The results are given in nM.

hMC1R = hMC1R (Homo sapiens (Human), UniProt Q01726); assay: Transactivation test: melanocortin receptors (pCRE-Luc luciferase reporter), hMC1R; format: cell-based; settings: HEK293 transfected with pCRE-Luc and hMC1R; products tested alone (agonist), 6 h incubation; % activity vs NDP-MSH 10 nM; IA: inactive
Method: as §1, §2, §3, §4, §5

Sequence of hMC4R (P32245 whole entry): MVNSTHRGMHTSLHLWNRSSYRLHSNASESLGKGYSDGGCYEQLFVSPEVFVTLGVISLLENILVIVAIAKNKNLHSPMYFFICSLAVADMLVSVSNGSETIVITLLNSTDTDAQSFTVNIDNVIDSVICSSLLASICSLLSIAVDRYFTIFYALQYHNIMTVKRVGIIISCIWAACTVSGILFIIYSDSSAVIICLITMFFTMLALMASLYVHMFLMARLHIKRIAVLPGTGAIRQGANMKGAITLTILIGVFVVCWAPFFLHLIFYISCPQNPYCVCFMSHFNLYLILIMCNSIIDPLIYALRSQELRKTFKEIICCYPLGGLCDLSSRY
Sequence of hMC1R (Q01726 whole entry): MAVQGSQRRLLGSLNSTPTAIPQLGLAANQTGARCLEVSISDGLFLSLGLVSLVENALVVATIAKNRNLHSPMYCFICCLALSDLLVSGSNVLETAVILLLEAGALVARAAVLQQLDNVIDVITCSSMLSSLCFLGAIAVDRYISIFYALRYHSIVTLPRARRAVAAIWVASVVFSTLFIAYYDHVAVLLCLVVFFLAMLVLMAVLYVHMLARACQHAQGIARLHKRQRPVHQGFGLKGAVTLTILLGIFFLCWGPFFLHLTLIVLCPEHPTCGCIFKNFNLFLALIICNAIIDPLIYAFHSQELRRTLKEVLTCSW

Compound | EC50 (hMC4R) [nM] | EC50 (hMC1R) [nM]
CCCCOC1(c2ccccc2C)CN(C(=O)C(Cc2ccc(OC)cc2)NC(=O)CC(CC)c2c[nH]cn2)C1 (centres unmarked) [Compound 63, N-[2-(3-butoxy-3-o-tolylazetidin-1-yl)-1-(4-methoxybenzyl)-2-oxoethyl]-3-(1H-imidazol-4-yl)pentyramide] | 500 | 500
CCCCOC1(c2ccccc2C)CN(C(=O)[C@@H](Cc2ccc(OC)cc2)NC(=O)CCc2c[nH]nn2)C1 [Compound 39, N-[(R)-2-(3-butoxy-3-o-tolylazetidin-1-yl)-1-(4-methoxybenzyl)-2-oxoethyl]-3-(1H-[1,2,3]triazol-4-yl)propionamide] | 2000 | 8000
CCCCCC1(c2ccccc2)CN(C(=O)[C@@H](Cc2ccccc2F)NC(=O)CCc2c[nH]cn2)C1 [Compound 57, N-[(R)-1-(2-fluorobenzyl)-2-oxo-2-(3-pentyl-3-phenylazetidin-1-yl)ethyl]-3-(1H-imidazol-4-yl)propionamide] | 4000 | 1000
CCCCOC1(c2ccccc2C)CN(C(=O)[C@@H](Cc2ccc(OC)cc2)NC(=O)CC(O)c2c[nH]cn2)C1 (stereo partly drawn) [Compound 74, N-[(R)-2-(3-Butoxy-3-o-tolylazetidin-1-yl)-1-(4-methoxybenzyl)-2-oxoethyl]-3-hydroxy-3-(1H-imidazol-4-yl)propionamide] | 8000 | 250
CCCCOC1(c2ccccc2C)CN(C(=O)[C@@H](Cc2ccc(OC)cc2)NC(=O)CCc2cncn2C)C1 [Compound 67, N-[(R)-2-(3-butoxy-3-o-tolylazetidin-1-yl)-1-(4-methoxybenzyl)-2-oxoethyl]-3-(3-methyl-3H-imidazol-4-yl)propionamide] | 500 | 500
CCCCOC1(c2ccccc2C)CN(C(=O)[C@@H](Cc2ccc(OC)cc2)NC(=O)C=Cc2c[nH]cn2)C1 [Compound 48, N-[(R)-2-(3-butoxy-3-o-tolylazetidin-1-yl)-1-(4-methoxybenzyl)-2-oxoethyl]-3-(1H-imidazol-4-yl)acrylamide] | 500 | 4000
CC#CCOC1(c2ccccc2C)CN(C(=O)[C@@H](Cc2ccc(OC)cc2)NC(=O)CCc2nc[nH]c2C)C1 [Compound 76, N-[(R)-2-(3-But-2-ynyloxy-3-o-tolylazetidin-1-yl)-1-(4-methoxybenzyl)-2-oxoethyl]-3-(5-methyl-1H-imidazol-4-yl)propionamide] | 4000 | 30
CCCCOC1(c2ccccc2C)CN(C(=O)[C@@H](Cc2ccc(OC)cc2)NC(=O)[C@@H](O)Cc2c[nH]cn2)C1 [Compound 71, (S)-N-[(R)-2-(3-Butoxy-3-o-tolylazetidin-1-yl)-1-(4-methoxybenzyl)-2-oxoethyl]-2-hydroxy-3-(1H-imidazol-4-yl)propionamide] | 4000 | 60
CCCCOC1(c2ccccc2)CN(C(=O)[C@@H](Cc2ccc(Cl)cc2Cl)NC(=O)CCc2c[nH]cn2)C1 [Compound 19, N-[(R)-2-(3-butoxy-3-phenylazetidin-1-yl)-1-(2,4-dichlorobenzyl)-2-oxoethyl]-3-(1H-imidazol-4-yl)propionamide] | 120 | 2000
CCCCOC1(c2cccc(F)c2)CN(C(=O)[C@H](Cc2ccc(OC)cc2)NC(=O)[C@H](Cc2c[nH]cn2)NC(=O)c2ccccc2)C1 [Compound 9, N-[(S)-1-[(S)-2-[3-butoxy-3-(3-fluorophenyl)azetidin-1-yl]-1-(4-methoxybenzyl)-2-oxoethylcarbamoyl]-2-(1H-imidazol-4-yl)ethyl]benzamide] | 1000 | 120
CCCCOC1(c2ccccc2F)CN(C(=O)[C@@H](Cc2ccc(OC)cc2)NC(=O)CCc2c[nH]cn2)C1 [Compound 68, N-[(R)-2-[3-Butoxy-3-(2-fluorophenyl)azetidin-1-yl]-1-(4-methoxybenzyl)-2-oxoethyl]-3-(1H-imidazol-4-yl)propionamide] | 2000 | 60

Continued, values first:

EC50 (hMC4R) [nM] | EC50 (hMC1R) [nM] | Compound
8000 | 500 | CCCCC1(c2ccccc2)CN(C(=O)[C@@H](Cc2ccc(OC)cc2)NC(=O)CCc2c[nH]cn2)C1 [Compound 27, N-[(R)-2-(3-butyl-3-phenylazetidin-1-yl)-1-(4-methoxybenzyl)-2-oxoethyl]-3-(1H-imidazol-4-yl)propionamide]
8000 | 2000 | CCCC(=O)OC1(c2ccc(F)cc2)CN(C(=O)[C@H](Cc2ccc(OC)cc2)NC(=O)[C@H](Cc2c[nH]cn2)NC(=O)c2ccccc2)C1 [Compound 6, 1-[(S)-2-[(S)-2-benzoylamino-3-(1H-imidazol-4-yl)propionylamino]-3-(4-methoxyphenyl)propionyl]-3-(4-fluorophenyl)azetidin-3-yl ester of butyric acid]
100 | 120 | CCCCCC1(c2c(F)cccc2F)CN(C(=O)[C@@H](Cc2ccc(OC)cc2)NC(=O)CCc2c[nH]cn2)C1 [Compound 61, N-[(R)-2-[3-(2,6-difluorophenyl)-3-pentylazetidin-1-yl]-1-(4-methoxybenzyl)-2-oxoethyl]-3-(1H-imidazol-4-yl)propionamide]
15000 | 2000 | COc1ccc(C[C@H](NC(=O)CCc2c[nH]cn2)C(=O)N2CC(OCC3CC3)(c3ccccc3C)C2)cc1 [Compound 14, N-[(S)-2-(3-cyclopropylmethoxy-3-o-tolylazetidin-1-yl)-1-(4-methoxybenzyl)-2-oxoethyl]-3-(1H-imidazol-4-yl)propionamide]
500 | 1000 | CCCCCC1(c2ccccc2)CN(C(=O)[C@@H](Cc2cccc(C(F)(F)F)c2)NC(=O)CCc2c[nH]cn2)C1 [Compound 50, N-[(R)-2-oxo-2-(3-pentyl-3-phenylazetidin-1-yl)-1-(3-trifluoromethylbenzyl)ethyl]-3-(1H-imidazol-4-yl)propionamide]
8000 | 1000 | COc1ccc(C[C@@H](NC(=O)CCc2c[nH]cn2)C(=O)N2CC(OCC3CC3)(c3ccccc3)C2)cc1 [Compound 28, N-[(R)-2-(3-cyclopropylmethoxy-3-phenylazetidin-1-yl)-1-(4-methoxybenzyl)-2-oxoethyl]-3-(1H-imidazol-4-yl)propionamide]
250 | 2000 | CCCCCC1(c2ccccc2)CN(C(=O)[C@@H](Cc2ccc(Cl)c(Cl)c2)NC(=O)CCc2c[nH]cn2)C1 [Compound 52, N-[(R)-1-(3,4-dichlorobenzyl)-2-oxo-2-(3-pentyl-3-phenylazetidin-1-yl)ethyl]-3-(1H-imidazol-4-yl)propionamide]
4000 | 1000 | CCCCCC1(c2ccccc2)CN(C(=O)[C@@H](Cc2ccc(F)c(F)c2)NC(=O)CCc2c[nH]cn2)C1 [Compound 53, N-[(R)-1-(3,4-difluorobenzyl)-2-oxo-2-(3-pentyl-3-phenylazetidin-1-yl)ethyl]-3-(1H-imidazol-4-yl)propionamide]
8000 | 4000 | COc1ccc(C[C@H](NC(=O)CCc2c[nH]cn2)C(=O)N2CC(O)(c3ccccc3C)C2)cc1 [Compound 11, N-[(S)-2-(3-hydroxy-3-o-tolylazetidin-1-yl)-1-(4-methoxybenzyl)-2-oxoethyl]-3-(1H-imidazol-4-yl)propionamide]
4000 | 15 | COc1ccc(C[C@@H](NC(=O)CCc2nc[nH]c2C)C(=O)N2CC(OCC=C(C)C)(c3ccccc3C)C2)cc1 [Compound 80, N-[(R)-1-(4-Methoxybenzyl)-2-[3-(3-methylbut-2-enyloxy)-3-o-tolylazetidin-1-yl]-2-oxoethyl)-3-(5-methyl-1H-imidazol-4-yl)propionamide]
500 | 2000 | CCCCCC1(c2ccccc2)CN(C(=O)[C@@H](Cc2ccc(OC)cc2)NC(=O)CCc2cncn2C)C1 [Compound 64, N-[(R)-1-(4-methoxybenzyl)-2-oxo-2-(3-pentyl-3-phenylazetidin-1-yl)ethyl]-3-(3-methyl-3H-imidazol-4-yl)propionamide]
15000 | 2000 | CCOC1(c2ccccc2C)CN(C(=O)[C@H](Cc2ccc(OC)cc2)NC(=O)CCc2c[nH]cn2)C1 [Compound 13, N-[(S)-2-(3-ethoxy-3-o-tolylazetidin-1-yl)-1-(4-methoxybenzyl)-2-oxoethyl]-3-(1H-imidazol-4-yl)propionamide]
500 | 2000 | CCCCCC1(c2ccccc2)CN(C(=O)[C@@H](Cc2ccc(Cl)cc2Cl)NC(=O)CCc2c[nH]cn2)C1 [Compound 58, N-[(R)-1-(2,4-dichlorobenzyl)-2-oxo-2-(3-pentyl-3-phenylazetidin-1-yl)ethyl]-3-(1H-imidazol-4-yl)propionamide]
4000 | 250 | COc1ccc(C[C@H](NC(=O)[C@H](Cc2c[nH]cn2)NC(=O)c2ccccc2)C(=O)N2CC(O)(c3ccccc3C)C2)cc1 [Compound 4, N-[(S)-1-[(S)-2-(3-hydroxy-3-o-tolylazetidin-1-yl)-1-(4-methoxybenzyl)-2-oxoethylcarbamoyl]-2-(1H-imidazol-4-yl)ethyl]benzamide]
